{"source": "BindingDB's records for doi:10.1021/jm060189a", "about": "(Abbott Laboratories, 2006)", "target": "Adenosine kinase (Rattus norvegicus, UniProt Q64640)", "sequence (Q64640 whole entry)": "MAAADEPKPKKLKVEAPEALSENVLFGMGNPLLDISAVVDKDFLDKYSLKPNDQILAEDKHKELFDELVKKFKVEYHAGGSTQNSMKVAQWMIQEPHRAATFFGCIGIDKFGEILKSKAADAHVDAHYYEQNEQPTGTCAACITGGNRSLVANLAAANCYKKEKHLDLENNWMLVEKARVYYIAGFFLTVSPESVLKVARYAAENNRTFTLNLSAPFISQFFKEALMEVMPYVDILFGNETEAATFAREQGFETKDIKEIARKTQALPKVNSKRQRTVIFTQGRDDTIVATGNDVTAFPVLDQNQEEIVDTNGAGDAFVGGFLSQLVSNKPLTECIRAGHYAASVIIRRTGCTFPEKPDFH", "experiment": "ADK Inhibition Assay", "details": "pH 7.5; 23 °C", "description": "ADK activity was monitored by a radiochemical assay, which measures the conversion of radioactive Ado ([U-14C] adenosine or [2-3H] adenosine) to AMP in the presence of ATP and MgCl2. The radioactivity incorporated was directly proportional to the conversion rate. The reaction was terminated by aliquoting the reaction mixture onto DE-81 anion exchange filter disks. The filter disks were then dried, washed, and counted. Bound radioactivity was determined by standard scintillation spectrometry at an efficiency of 55%.", "data": [{"compound": "Cc1nc(N)c(-c2ccccc2)c(C#Cc2ccc(N(C)C)cc2)n1", "values": [{"measurement": "IC50", "value": "> 1000", "unit": "nM"}]}]}
